According to US20230339854A1, “Negative Allosteric Modulation of GluN3-Containing N-Methyl-D-Aspartate Receptors” (Emory University, priority 2020, published 2023):
pIC50: −log10 of the molar value.

Molecular target: T1, human GluN1^FA,TL/GluN3A receptors (Homo sapiens, UniProt Q8TCU5)
T1 construct: Human GluN3A (NP_597702.2) and rat GluN3B (NP_579842.2) were synthesized and subcloned into SP6 plasmids; expressed in transfected cells; host or cells: Xenopus laevis oocytes, cRNA injection (GluN1:GluN3 1:3)
T1 sequence (Q8TCU5 24-1115, other chains not shown): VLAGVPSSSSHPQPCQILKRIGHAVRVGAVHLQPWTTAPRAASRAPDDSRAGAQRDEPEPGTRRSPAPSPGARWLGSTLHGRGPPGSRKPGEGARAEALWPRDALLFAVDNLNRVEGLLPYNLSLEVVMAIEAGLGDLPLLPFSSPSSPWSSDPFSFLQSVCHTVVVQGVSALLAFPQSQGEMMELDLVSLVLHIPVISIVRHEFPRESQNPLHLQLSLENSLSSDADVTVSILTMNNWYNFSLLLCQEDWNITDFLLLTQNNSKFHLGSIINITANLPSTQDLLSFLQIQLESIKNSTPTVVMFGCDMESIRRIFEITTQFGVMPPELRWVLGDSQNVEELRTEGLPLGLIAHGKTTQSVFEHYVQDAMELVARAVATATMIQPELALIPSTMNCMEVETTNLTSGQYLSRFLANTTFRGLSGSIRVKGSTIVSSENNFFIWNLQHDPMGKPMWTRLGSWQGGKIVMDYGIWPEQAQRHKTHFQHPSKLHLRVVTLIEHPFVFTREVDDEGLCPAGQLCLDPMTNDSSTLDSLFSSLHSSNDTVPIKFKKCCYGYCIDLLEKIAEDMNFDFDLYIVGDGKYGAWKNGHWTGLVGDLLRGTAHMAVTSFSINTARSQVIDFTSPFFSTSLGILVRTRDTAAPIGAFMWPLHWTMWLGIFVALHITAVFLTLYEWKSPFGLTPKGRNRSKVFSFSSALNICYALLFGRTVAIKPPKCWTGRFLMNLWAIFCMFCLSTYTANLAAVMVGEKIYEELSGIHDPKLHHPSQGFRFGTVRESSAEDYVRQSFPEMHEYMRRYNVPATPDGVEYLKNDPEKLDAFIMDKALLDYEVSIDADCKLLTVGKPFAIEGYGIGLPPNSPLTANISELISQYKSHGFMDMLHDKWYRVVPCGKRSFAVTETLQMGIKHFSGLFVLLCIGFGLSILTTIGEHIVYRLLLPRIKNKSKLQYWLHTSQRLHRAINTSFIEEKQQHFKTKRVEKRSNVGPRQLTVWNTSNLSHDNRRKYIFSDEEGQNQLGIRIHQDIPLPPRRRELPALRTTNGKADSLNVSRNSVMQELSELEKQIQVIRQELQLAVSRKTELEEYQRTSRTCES
Assay: Two-electrode voltage-clamp recordings of GluN1^FA,TL/GluN3A receptors in Xenopus oocytes
Format: cell-based
Conditions: 30 μM drug
From the text: cDNA encoding human wild-type (WT) GluN1-1a (GenBank accession numbers NP_015566, hereafter GluN1) and rat GluN1-1a (NP_058706.1) were synthesized and subcloned into pGEMHE plasmid; some experiments used the rat splice variant GluN1-4a (NP_001257531.1). Human GluN3A (NP_597702.2) and rat GluN3B (NP_579842.2) were synthesized and subcloned into SP6 plasmids. For most experiments, human GluN1 was co-expressed with human GluN3A, except for mutagenesis experiments where rat GluN1 was co-expressed with human GluN3A. Rat GluN1-4a was always expressed with rat GluN3B.
Defolliculated Xenopus laevis oocytes (stage V-VI) were obtained from Ecocyte BioScience (Austin, Texas), or prepared from commercially available Xenopus ovaries (Xenopus 1, Dexter, MI) as previously described (Hansen, et al., Mol. Pharmacol., 2013). A Drummond Nanoject II (Broomall, PA) was used to inject oocytes with cRNAs encoding GluN1 and GluN3 at a 1:3 ratio in RNase-free water. The cRNA was diluted as needed to give responses with amplitudes ranging between 200-2000 nA (0.2-10 ng total cRNA). Following cRNA injection, the oocytes were stored at 15-19° C. in Barth's solution that contained (in mM) 88 NaCl, 2.4 NaHCO3, 1 KCl, 0.33 Ca(NO3)2, 0.41 CaCl2), 0.82 MgSO4, and 5 Tris-HCl (pH 7.4 with NaOH), supplemented with 1 μg/ml streptomycin (Invitrogen, Carlsbad, CA) and 100 μg/ml gentamicin (Fisher Scientific, Pittsburgh, PA). Recordings were performed 2-5 days following cRNA microinjection at room temperature (23° C.) using a two-electrode voltage-clamp amplifier (OC725, Warner Instrument, Hamilton, CT). The signal was low-pass filtered at 10-20 Hz (4-pole, −3 dB Bessel) and digitized at the Nyquist rate using PCI-6025E or USB-6212 BNC data acquisition boards (National Instruments, Austin, TX) using EasyOocyte (http://www.easyoocyte.io/). Oocytes were placed in a custom-made chamber and continuously perfused (2.5 ml/min) with oocyte recording solution containing (in mM) 90 NaCl, 1 KCl, 10 HEPES, 0.5-1.0 BaCl2, and 0.01 EDTA (pH 7.4 with NaOH). Solutions were applied by gravity, and solution exchange was controlled through a rotary valve (Hamilton, Reno, NV). Recording electrodes were filled with 0.3-3.0 M KCl, and current responses were recorded at a holding potential of −40 mV.
Response (%)=(100−minimum)/(1+([concentration]/IC50)^nH)+minimum (2) • where nH is the Hill slope, IC50 is the concentration that produces a half-maximal effect, and minimum is the degree of residual inhibition at a saturating concentration of the negative allosteric modulator.
The afore-referenced compounds were screened in the same assay as EU1180-438 to determine their effects on hGluN1^FA,TL/hGluN3A receptors. Selected compounds that inhibited by more than 20% at the concentration at which they were initially evaluated (either 10 or 30 μM) were analyzed further, and a dose-response curve was generated to determine their IC50 values.

Row | hGluN1^FA,TL/hGluN3A (100 × Idrug/Icontrol at 30 μM drug) | SMILES
1 | 44% | COc1ccc(OCC(c2ccc(OC)cc2)N2Cc3ccc(Cl)cc3C2=O)cc1 (stereo not drawn) [EU1180-516, 6-Chloro-2-(2-(4-methoxyphenoxy)-1-(4-methoxyphenyl)ethyl)isoindolin-1l-one]

Same assay, conditions: hGluN1^FA,TL/hGluN3A; read-out: IC50

Row | pIC50 | SMILES
2 | 4.80 | CCOc1ccc(OCC(c2ccc(OC(C)C)cc2)N2Cc3ccc(F)cc3C2=O)cc1 (stereo not drawn) [EU1180-590, 6-fluoro-2-(2-(4-ethoxyphenoxy)-1-(4-isopropoxyphenyl)ethyl)isoindolin-1-one]

Same assay, conditions: read-out: hGluN1^FA,TL/hGluN3A (100 × Idrug/Icontrol at 30 μM drug)

Row | remaining activity at 30 µM | SMILES
3 | 98% | CC(C)Oc1ccc(C(COc2ccc(OC(F)(F)F)cc2)N2Cc3cc(F)ccc3C2=O)cc1 (stereo not drawn) [EU1180-544, 5-fluoro-2-(1-(4-isopropoxyphenyl)-2-(4-(trifluoromethoxy)phenoxy)ethyl)isoindolin-1-one]
4 | 99% | COc1ccc(OCC(c2ccc(OC)cc2F)N2Cc3ccc(C(F)(F)F)cc3C2=O)cc1 (stereo not drawn) [EU1180-531, 2-(1-(2-Fluoro-4-methoxyphenyl)-2-(4-methoxyphenoxy)ethyl)-6-(trifluoromethyl)isoindolin-1-one]
5 | 98% | COc1ccc(OCC(c2ccc(OC(C)C)cc2)N2Cc3cc(Br)ccc3C2=O)cc1 (stereo not drawn) [EU1180-563, 5-bromo-2-(1-(4-isopropoxyphenyl)-2-(4-methoxyphenoxy)ethyl)isoindolin-1-one]
6 | 98% | CCOc1ccc(OCC(c2ccc(OC(C)C)cc2)N2Cc3ccc(C(F)(F)F)cc3C2=O)cc1 (stereo not drawn) [EU1180-587, 2-(2-(4-ethoxyphenoxy)-1-(4-isopropoxyphenyl)ethyl)-6-(trifluoromethyl)isoindolin-1-one]
7 | 35% | CCOc1ccc(OCC(c2ccc(OC(C)C)cc2)N2Cc3ccc(F)cc3C2=O)cc1 (stereo not drawn) [EU1180-590, 6-fluoro-2-(2-(4-ethoxyphenoxy)-1-(4-isopropoxyphenyl)ethyl)isoindolin-1-one]
8 | 93% | Cc1cccc(OCC(c2ccc(OC(C)C)cc2)N2Cc3ccc(Br)cc3C2=O)n1 (stereo not drawn) [EU1180-514, 6-bromo-2-(1-(4-isopropoxyphenyl)-2-((6-methylpyridin-2-yl)oxy)ethyl)isoindolin-1-one]
9 | 89% | COc1cc(F)c(C(COc2cccc(C)n2)N2Cc3cc(F)ccc3C2=O)c(F)c1 (stereo not drawn) [EU1180-613, 2-(1-(2,6-Difluoro-4-methoxyphenyl)-2-((6-methylpyridin-2-yl)oxy)ethyl)-5-fluoroisoindolin-1-one]
10 | 69% | COc1ccc(C(COc2cccc(C)n2)N2Cc3ccc(Br)cc3C2=O)cc1 (stereo not drawn) [EU1180-597, 6-Bromo-2-(1-(4-methoxyphenyl)-2-((6-methylpyridin-2-yl)oxy)ethyl)isoindolin-1-one]
11 | 96% | COc1ccc(OCC(c2ccc(OC(C)C)cc2)N2Cc3cc(Cl)ccc3C2=O)cc1 (stereo not drawn) [EU1180-559, 5-chloro-2-(1-(4-isopropoxyphenyl)-2-(4-methoxyphenoxy)ethyl)isoindolin-1-one]
12 | 96% | COc1ccc(OCC(c2c(F)cc(OC)cc2F)N2Cc3ccc(C(F)(F)F)cc3C2=O)cc1 (stereo not drawn) [EU1180-546, 2-(1-(2,6-Difluoro-4-methoxyphenyl)-2-(4-methoxyphenoxy)ethyl)-6-(trifluoromethyl)isoindolin-1-one]
13 | 57% | COc1cc(F)c(C(COc2cccc(C)n2)N2Cc3ccc(F)cc3C2=O)c(F)c1 (stereo not drawn) [EU1180-614, 2-(1-(2,6-Difluoro-4-methoxyphenyl)-2-((6-methylpyridin-2-yl)oxy)ethyl)-6-fluoroisoindolin-1-one]
14 | 108% | CC(C)Oc1ccc(C(COc2ccc(C(F)(F)F)cc2)N2Cc3ccc(Br)cc3C2=O)cc1 (stereo not drawn) [EU1180-577, 6-bromo-2-(1-(4-isopropoxyphenyl)-2-(4-(trifluoromethyl)phenoxy)ethyl)isoindolin-1-one]
15 | 94% | COc1ccc(OCC(c2ccc(OC)c(OC)c2)N2Cc3ccc(Br)cc3C2=O)cc1 (stereo not drawn) [EU1180-527, 6-Bromo-2-(1-(3,4-dimethoxyphenyl)-2-(4-methoxyphenoxy)ethyl)isoindolin-1-one]
16 | 74% | COc1ccc(OCC(c2c(F)cc(OC)cc2F)N2Cc3ccccc3C2=O)cc1 (stereo not drawn) [EU1180-545, 2-(1-(2,6-Difluoro-4-methoxyphenyl)-2-(4-methoxyphenoxy)ethyl)isoindolin-1-one]
17 | 69% | COc1ccc(C(COc2cccc(C)n2)N2Cc3ccc(Cl)cc3C2=O)c(F)c1 (stereo not drawn) [EU1180-605, 6-Chloro-2-(1-(2-fluoro-4-methoxyphenyl)-2-((6-methylpyridin-2-yl)oxy)ethyl)isoindolin-1-one]
18 | 70% | COc1ccc(OCC(c2c(F)cc(OC)cc2F)N2Cc3ccc(F)cc3C2=O)cc1 (stereo not drawn) [EU1180-552, 2-(1-(2,6-Difluoro-4-methoxyphenyl)-2-(4-methoxyphenoxy)ethyl)-6-fluoroisoindolin-1-one]
19 | 100% | CC(C)Oc1ccc(C(COc2ccc(C(F)(F)F)cc2)N2Cc3ccc(Cl)cc3C2=O)cc1 (stereo not drawn) [EU1180-573, 6-chloro-2-(1-(4-isopropoxyphenyl)-2-(4-(trifluoromethyl)phenoxy)ethyl)isoindolin-1-one]
20 | 91% | CC(C)Oc1ccc(C(COc2ccc(C(F)(F)F)cc2)N2Cc3cc(Cl)ccc3C2=O)cc1 (stereo not drawn) [EU1180-574, 5-chloro-2-(1-(4-isopropoxyphenyl)-2-(4-(trifluoromethyl)phenoxy)ethyl)isoindolin-1-one]
21 | 84% | COc1ccc(C(COc2cccc(C)n2)N2Cc3ccc(C(F)(F)F)cc3C2=O)c(F)c1 (stereo not drawn) [EU1180-603, 2-(1-(2-Fluoro-4-methoxyphenyl)-2-((6-methylpyridin-2-yl)oxy)ethyl)-6-(trifluoromethyl)isoindolin-1-one]
22 | 86% | COc1ccc(OCC(c2ccc(OC)cc2)N2Cc3ccc(C(F)(F)F)cc3C2=O)cc1 (stereo not drawn) [EU1180-518, 2-(2-(4-Methoxyphenoxy)-1-(4-methoxyphenyl)ethyl)-6-(trifluoromethyl)isoindolin-1-one]
23 | 92% | COc1ccc(OCC(c2c(F)cc(OC)cc2F)N2Cc3cc(F)ccc3C2=O)cc1 (stereo not drawn) [EU1180-551, 2-(1-(2,6-Difluoro-4-methoxyphenyl)-2-(4-methoxyphenoxy)ethyl)-5-fluoroisoindolin-1-one]
24 | 79% | COc1cc(F)c(C(COc2cccc(C)n2)N2Cc3cc(Br)ccc3C2=O)c(F)c1 (stereo not drawn) [EU1180-612, 5-Bromo-2-(1-(2,6-difluoro-4-methoxyphenyl)-2-((6-methylpyridin-2-yl)oxy)ethyl)isoindolin-1-one]
25 | 94% | COc1ccc(OCC(c2ccc(OC)c(OC)c2)N2Cc3ccc(Cl)cc3C2=O)cc1 (stereo not drawn) [EU1180-525, 6-Chloro-2-(1-(3,4-dimethoxyphenyl)-2-(4-methoxyphenoxy)ethyl)isoindolin-1-one]
26 | 99% | CC(C)Oc1ccc(C(COc2ccc(OC(F)(F)F)cc2)N2Cc3ccccc3C2=O)cc1 (stereo not drawn) [EU1180-538, 2-(1-(4-isopropoxyphenyl)-2-(4-(trifluoromethoxy)phenoxy)ethyl)isoindolin-1-one]
27 | 98% | COc1ccc(OCC(c2ccc(OC(C)C)cc2)N2Cc3ccc(C(F)(F)F)cc3C2=O)cc1 (stereo not drawn) [EU1180-558, 2-(1-(4-isopropoxyphenyl)-2-(4-methoxyphenoxy)ethyl)-6-(trifluoromethyl)isoindolin-1-one]
28 | 90% | COc1ccc(OCC(c2ccc(OC)cc2)N2Cc3cc(Br)ccc3C2=O)cc1 (stereo not drawn) [EU1180-519, 5-Bromo-2-(2-(4-methoxyphenoxy)-1-(4-methoxyphenyl)ethyl)isoindolin-1-one]
29 | 73% | COc1ccc(C(COc2cccc(C)n2)N2Cc3cc(Cl)ccc3C2=O)cc1 (stereo not drawn) [EU1180-594, 5-Chloro-2-(1-(4-methoxyphenyl)-2-((6-methylpyridin-2-yl)oxy)ethyl)isoindolin-1-one]
30 | 90% | CCOc1ccc(OCC(c2ccc(OC(C)C)cc2)N2Cc3cc(F)ccc3C2=O)cc1 (stereo not drawn) [EU1180-591, 5-fluoro-2-(2-(4-ethoxyphenoxy)-1-(4-isopropoxyphenyl)ethyl)isoindolin-1-one]
